From the NIST ThermoML archive (doi:10.1021/je034290l)
Numbers after ± are expanded uncertainties.

Legend:
[1] = refractive index (Na D-line) (dimensionless); settings: 318.15 K; 101.33 kPa; Liquid; Standard Abbe refractometry
[2] = Liquid
[3] = excess molar enthalpy (molar enthalpy of mixing); xn = mol fraction of the nth substance listed; settings: 299.15 K, 101.32 kPa, Liquid, Calvet calorimetry
[4] = xn = mol fraction of the nth substance listed; settings: 299.15 K, 101.32 kPa, Liquid

COC(C)=O [methyl ethanoate]
Settings	refractive index
[1]	1.3486 ± 0.0007

[2]
Settings	vapor or sublimation pressure [kPa]
305.21 K	39.85 ± 0.69
305.85 K	41.28 ± 0.7
306.84 K	42.46 ± 0.71
307.84 K	44.04 ± 0.71
308.13 K	45.37 ± 0.72
308.75 K	46.97 ± 0.73
309.72 K	48.14 ± 0.73
310.17 K	49.41 ± 0.74
311.19 K	50.42 ± 0.75
311.59 K	51.81 ± 0.75
312.76 K	53.53 ± 0.76
313.38 K	54.58 ± 0.77
313.74 K	55.9 ± 0.77
314.18 K	57.49 ± 0.78
314.88 K	58.59 ± 0.79
315.56 K	60.05 ± 0.79
316.06 K	61.43 ± 0.8
316.57 K	62.5 ± 0.81
317.05 K	63.9 ± 0.81
318.34 K	66.51 ± 0.83
318.69 K	67.81 ± 0.83
319.37 K	69.23 ± 0.84
319.93 K	70.45 ± 0.85
320.11 K	71.01 ± 0.85
320.34 K	71.9 ± 0.85
320.65 K	73.35 ± 0.86
321.34 K	74.58 ± 0.87
321.46 K	75.27 ± 0.87
321.72 K	76.13 ± 0.87
322.07 K	77.22 ± 0.88
322.36 K	77.87 ± 0.88
322.62 K	78.83 ± 0.89
323.07 K	80.15 ± 0.89
323.49 K	81.23 ± 0.9
324.29 K	82.59 ± 0.91
324.58 K	83.84 ± 0.91
324.95 K	85.23 ± 0.92
325.33 K	86.76 ± 0.93
325.71 K	87.86 ± 0.93
326.25 K	89.23 ± 0.94
326.63 K	90.98 ± 0.95
327.08 K	92.06 ± 0.95
327.54 K	93.46 ± 0.96
328 K	94.82 ± 0.97
328.17 K	96.1 ± 0.98
328.96 K	97.67 ± 0.98
329.38 K	99.14 ± 0.99
329.55 K	100.18 ± 0.99
329.86 K	101.32 ± 1
330.09 K	102.6 ± 1
330.43 K	104.14 ± 1
330.97 K	105.19 ± 1
331.43 K	106.75 ± 1
331.76 K	107.92 ± 1
332.06 K	109.42 ± 1
332.52 K	110.71 ± 1.1
332.77 K	112.16 ± 1.1
333.1 K	113.39 ± 1.1
333.6 K	114.47 ± 1.1
333.94 K	115.87 ± 1.1
334.06 K	117.43 ± 1.1
334.27 K	118.52 ± 1.1
334.73 K	120.12 ± 1.1
335.06 K	121.46 ± 1.1
335.23 K	122.57 ± 1.1
335.73 K	123.95 ± 1.1
336.07 K	125.35 ± 1.1
336.48 K	126.88 ± 1.1
336.86 K	127.85 ± 1.1
337.19 K	129.37 ± 1.1
337.53 K	130.87 ± 1.1
337.78 K	131.93 ± 1.1
337.9 K	133.48 ± 1.2
338.15 K	134.72 ± 1.2
338.66 K	136.16 ± 1.2
338.82 K	137.37 ± 1.2
339.07 K	138.56 ± 1.2
339.41 K	140.07 ± 1.2
339.66 K	141.45 ± 1.2
339.95 K	142.53 ± 1.2
340.33 K	144.04 ± 1.2
340.49 K	145.51 ± 1.2
340.95 K	146.43 ± 1.2
341.08 K	147.88 ± 1.2
341.45 K	149.13 ± 1.2
341.79 K	150.58 ± 1.2
342 K	151.93 ± 1.2
342.37 K	153.34 ± 1.3
342.46 K	154.61 ± 1.3
342.85 K	155.92 ± 1.3
343.21 K	157.52 ± 1.3
343.36 K	158.57 ± 1.3
343.46 K	160.01 ± 1.3
343.67 K	161.1 ± 1.3
344.09 K	162.7 ± 1.3
344.46 K	164.2 ± 1.3
344.67 K	165.28 ± 1.3
344.88 K	166.78 ± 1.3
345.05 K	168.02 ± 1.3
345.26 K	169.24 ± 1.3
345.47 K	170.37 ± 1.3
345.84 K	171.92 ± 1.4
345.96 K	173.2 ± 1.4

Settings	mass density [kg/m3]
[2], 318.15 K, 101.33 kPa	900.19 ± 0.36

COC=O [methyl methanoate] + CC(C)(C)O
Settings	excess molar enthalpy, [3] [kcal/mol]	excess molar volume, [4] [m3/mol]
x1 = 0.0627	–	2.95e-07 ± 1.7e-08
x1 = 0.0899	0.158 ± 0.00206	–
x1 = 0.1002	–	4.51e-07 ± 1.8e-08
x1 = 0.1302	–	5.67e-07 ± 1.8e-08
x1 = 0.1667	–	6.88e-07 ± 1.9e-08
x1 = 0.202	0.336 ± 0.0043	–
x1 = 0.2419	–	8.67e-07 ± 2e-08
x1 = 0.2873	0.451 ± 0.00574	–
x1 = 0.319	–	9.88e-07 ± 2e-08
x1 = 0.3526	–	1.025e-06 ± 2e-08
x1 = 0.3657	0.528 ± 0.00669	–
x1 = 0.4033	–	1.061e-06 ± 2e-08
x1 = 0.4323	0.57 ± 0.00717	–
x1 = 0.4976	–	1.068e-06 ± 2e-08
x1 = 0.5033	0.594 ± 0.00741	–
x1 = 0.5076	–	1.067e-06 ± 2e-08
x1 = 0.5567	0.594 ± 0.00741	–
x1 = 0.5726	–	1.036e-06 ± 2e-08
x1 = 0.6017	0.581 ± 0.00717	–
x1 = 0.6163	–	9.94e-07 ± 2e-08
x1 = 0.6287	0.569 ± 0.00717	–
x1 = 0.6512	–	9.55e-07 ± 2e-08
x1 = 0.6747	0.538 ± 0.00669	–
x1 = 0.7222	0.491 ± 0.00621	8.68e-07 ± 2e-08
x1 = 0.7382	–	8.34e-07 ± 1.9e-08
x1 = 0.7721	0.433 ± 0.0055	–
x1 = 0.7939	–	7.46e-07 ± 1.9e-08
x1 = 0.8111	–	7.04e-07 ± 1.9e-08
x1 = 0.8206	0.364 ± 0.00454	–
x1 = 0.8697	0.282 ± 0.00359	–
x1 = 0.8902	–	5.01e-07 ± 1.8e-08
x1 = 0.9187	0.186 ± 0.00239	–
x1 = 0.9574	–	2.43e-07 ± 1.7e-08
x1 = 0.9598	0.0997 ± 0.00139	–
